Results on 34 compounds are retold here after patent US20090137549A1, “Novel compounds useful for the treatment of degenerative & inflamatory diseases” (priority 2006, published 2009).

This assay deals with PDE1A (Homo sapiens, UniProt P54750). Briefly: PDE1A dose response, Cyclic Nucleotide Phosphodiesterase Assay Kit from Biomol (colorimetric). In kind it is biochemical. The note with it: purified PDE1A enzyme, 100 μM cAMP. In a few lines: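 Purified PDE1A hydrolysed 100 μM cAMP with 5′-nucleotidase in Tris 20 mM pH 7.4 with calmodulin, Ca2+, Mg2+, 45 min at 37° C. Released phosphate read by malachite-green absorbance at 615 nm. Duplicate 8-point 1/3 dilutions from 20 μM, 1% DMSO; 10 μM vardenafil defined 100% inhibition.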
In general, IC50 refers to the midpoint of a concentration-inhibition curve. A high value points to lower potency. With `O=c1[nH]c(C2CN(c3ncc(Br)s3)C2)nc2c1cnn2C1CCCCC1` [Example 140, 6-(1-(5-bromothiazol-2-yl)azetidin-3-yl)-1-cyclohexyl-1H-pyrazolo[3,4-d]pyrimidin-4(5H)-one], the IC50 fell in the range of 0.501 to 1 µM.

For the compound `CC(C)(C)n1ncc2c(=O)[nH]c(C3CN(c4nccs4)C3)nc21` [Example 141, 1-tert-butyl-6-(1-(thiazol-2-yl)azetidin-3-yl)-1H-pyrazolo[3,4-d]pyrimidin-4(5H)-one], the half-inhibitory concentration (IC50) lay in the range of 0.501 to 1 µM.

In the case of `O=c1[nH]c(C2CN(c3nc(CN4CCOCC4)cs3)C2)nc2c1cnn2C1CCCCC1` [Example 142, 1-cyclohexyl-6-(1-(4-(morpholinomethyl)thiazol-2-yl)azetidin-3-yl)-1H-pyrazolo[3,4-d]pyrimidin-4(5H)-one], the IC50 was in the range of 0.101 to 0.5 µM.

Compound `CC(C)N1CCN(Cc2csc(N3CC(c4nc5c(cnn5C5CCCCC5)c(=O)[nH]4)C3)n2)CC1` [Example 143, 1-cyclohexyl-6-(1-(4-((4-isopropylpiperazin-1-yl)methyl)thiazol-2-yl)azetidin-3-yl)-1H-pyrazolo[3,4-d]pyrimidin-4(5H)-one] came in with an IC50 of 1 to 1.5 µM.

In turn, `CN1CCN(c2ccc3[nH]c(N4CC(c5nc6c(cnn6C(C)(C)C)c(=O)[nH]5)C4)nc3c2)CC1` [Example 144, 1-tert-butyl-6-(1-(5-(4-methylpiperazin-1-yl)-1H-benzo[d]imidazol-2-yl)azetidin-3-yl)-1H-pyrazolo[3,4-d]pyrimidin-4(5H)-one] showed an IC50 of 0.101 to 0.5 µM.

On to `O=c1[nH]c(C2CN(c3ccc(S(=O)(=O)N4CCOCC4)cc3)C2)nc2c1cnn2C1CCCCC1` [Example 145, 1-Cyclohexyl-6-(1-(4-(Morpholinosulfonyl)phenyl)azetidin-3-yl)-1H-pyrazolo[3,4-d]pyrimidin-4(5H)-one], for which the IC50 fell in the range of 0.001 to 0.1 µM.

In turn, `Nc1cc(N2CC(c3nc4c(cnn4C4CCCCC4)c(=O)[nH]3)C2)ccc1[N+](=O)[O-]` [Example 146, 6-(1-(3-amino-4-nitrophenyl)azetidin-3-yl)-1-cyclohexyl-1H-pyrazolo[3,4-d]pyrimidin-4(5H)-one] yielded an IC50 of 0.001 to 0.1 µM.

`CC(=O)c1ccc(N2CC(c3nc4c(cnn4C4CCCCC4)c(=O)[nH]3)C2)cc1` [Example 147, 6-(1-(4-acetoylphenyl)azetidin-3-yl)-1-cyclohexyl-1H-pyrazolo[3,4-d]pyrimidin-4(5H)-one] returned an IC50 of 0.001 to 0.1 µM.

Consider `N#Cc1ccc(N2CC(c3nc4c(cnn4C4CCCCC4)c(=O)[nH]3)C2)cc1` [Example 148, 4-(3-(1-cyclohexyl-4-oxo-4,5-dihydro-1H-pyrazolo[3,4-d]pyrimidin-6-yl)azetidin-1-yl)benzonitrile], for which the IC50 is 0.001 to 0.1 µM.

`Cc1cc(N2CC(c3nc4c(cnn4C4CCCCC4)c(=O)[nH]3)C2)ccc1[N+](=O)[O-]` [Example 149, 1-cyclohexyl-6-(1-(3-methyl-4-nitrophenyl)azetidin-3-yl)-1H-pyrazolo[3,4-d]pyrimidin-4(5H)-one] had an IC50 of 0.001 to 0.1 µM.

On to `N#Cc1ccccc1N1CC(c2nc3c(cnn3C3CCCCC3)c(=O)[nH]2)C1` [Example 150, 2-(3-(1-cyclohexyl-4-oxo-4,5-dihydro-1H-pyrazolo[3,4-d]pyrimidin-6-yl)azetidin-1-yl)benzonitrile], for which the IC50 lay in the range of 0.101 to 0.5 µM.

In the case of `CC(=O)c1ccccc1N1CC(c2nc3c(cnn3C3CCCCC3)c(=O)[nH]2)C1` [Example 151, 6-(1-(2-acetoylphenyl)azetidin-3-yl)-1-cyclohexyl-1H-pyrazolo[3,4-d]pyrimidin-4(5H)-one], the IC50 lay in the range of 0.101 to 0.5 µM.

Regarding `O=c1[nH]c(C2CN(c3ccc(C(F)(F)F)cc3)C2)nc2c1cnn2C1CCCCC1` [Example 152, 1-cyclohexyl-6-(1-(4-(trifluoromethyl)phenyl)azetidin-3-yl)-1H-pyrazolo[3,4-d]pyrimidin-4(5H)-one], the IC50 lay within 0.101 to 0.5 µM.

The compound `O=c1[nH]c(C2CCCN(c3ccc([N+](=O)[O-])cn3)C2)nc2c1cnn2C1CCCCC1` (stereo not shown) [Example 153, 1-cyclohexyl-6-(1-(5-nitropyridin-2-yl)piperidin-3-yl)-1H-pyrazolo[3,4-d]pyrimidin-4(5H)-one] gave an IC50 of 1 to 1.5 µM.

On to `O=c1[nH]c(C2CCCN(c3ccc(C(F)(F)F)cn3)C2)nc2c1cnn2C1CCCCC1` (stereo not shown) [Example 154, 1-cyclohexyl-6-(1-(5-(trifluoromethyl)pyridin-2-yl)piperidin-3-yl)-1H-pyrazolo[3,4-d]pyrimidin-4(5H)-one], for which the IC50 fell in the range of 1 to 1.5 µM.

With `O=c1[nH]c(C2CN(c3ccc(CN4CCOCC4)cc3)C2)nc2c1cnn2C1CCCCC1` [Example 155, 1-Cyclohexyl-6-[1-(4-morpholin-4-ylmethyl-phenyl)-azetidin-3-yl]-1,5-dihydro-pyrazolo[3,4-d]pyrimidin-4-one], the IC50 lay within 0.001 to 0.1 µM.

Take `O=c1[nH]c(C2CN(c3ccccc3CN3CCOCC3)C2)nc2c1cnn2C1CCCCC1` [Example 156, 1-Cyclohexyl-6-(1-(2-(morpholinomethyl)phenyl)azetidin-3-yl)-1H-pyrazolo[3,4-d]pyrimidin-4(5H)-one]: the IC50 lay in the range of 0.101 to 0.5 µM.

`CC(C)(C)c1csc(N2CC(c3nc4c(cnn4C4CCCCC4)c(=O)[nH]3)C2)n1` [Example 157, 6-(1-(4-tert-Butylthiazol-2-yl)azetidin-3-yl)-1-cyclohexyl-1H-pyrazolo[3,4-d]pyrimidin-4-(5H)-one] registered an IC50 of 0.101 to 0.5 µM.

For the compound `O=c1[nH]c(C2CN(c3nnc(-c4ccccc4)[nH]3)C2)nc2c1cnn2C1CCCCC1` [Example 158, 1-Cyclohexyl-6-(1-(5-phenyl-4H-1,2,4-triazol-3-yl)azetidin-3-yl)-1H-pyrazolo[3,4-d]pyrimidin-4-(5H)-one], the IC50 was in the range of 0.001 to 0.1 µM.

Turning to `O=c1[nH]c(C2CN(c3nc(-c4ccccc4)cs3)C2)nc2c1cnn2C1CCCCC1` [Example 159, 1-Cyclohexyl-6-(1-(4-phenylthiazol-2-yl)azetidin-3-yl)-1H-pyrazolo[3,4-d]pyrimidin-4-(5H)-one], the concentration for half-maximal inhibition (IC50) fell in the range of 0.001 to 0.1 µM.

On to `O=c1[nH]c(C2CN(c3ncc(-c4ccccc4)s3)C2)nc2c1cnn2C1CCCCC1` [Example 160, 1-Cyclohexyl-6-(1-(5-phenylthiazol-2-yl)azetidin-3-yl)-1H-pyrazolo[3,4-d]pyrimidin-4-(5H)-one], for which the IC50 was in the range of 0.101 to 0.5 µM.

The compound `CC(C)N1CCN(c2ccc(-c3csc(N4CC(c5nc6c(cnn6C6CCCCC6)c(=O)[nH]5)C4)n3)cc2)CC1` [Example 161, 1-Cyclohexyl-6-(1-(4-(4-(4-isopropylpiperazin-1-yl)phenyl)thiazol-2-yl)azetidin-3-yl)-1H-pyrazolo[3,4-d]pyrimidin-4-(5H)-one] displayed an IC50 of 0.001 to 0.1 µM.

`O=c1[nH]c(C2CN(c3nc(-c4ccccc4)c(CN4CCOCC4)s3)C2)nc2c1cnn2C1CCCCC1` [Example 162, 1-Cyclohexyl-6-(1-(5-morpholin-4-ylmethyl-4-phenylthiazol-2-yl)azetidin-3-yl)-1H-pyrazolo[3,4-d]pyrimidin-4-(5H)-one] came in with an IC50 of 0.001 to 0.1 µM.

The compound `CC(C)(C)n1ncc2c(=O)[nH]c(C3CN(c4ccccn4)C3)nc21` [Example 163, 1-tert-Butyl-6-(1-pyridin-2-yl-azetidin-3-yl)-1,5-dihydro-pyrazolo[3,4-d]pyrimidin-4-one] had an IC50 of 0.101 to 0.5 µM.

With `CC(C)(C)n1ncc2c(=O)[nH]c(C3CN(c4ccc(CN5CCOCC5)cc4)C3)nc21` [Example 164, 1-tert-Butyl-6-[1-(4-morpholin-4-ylmethyl-phenyl)-azetidin-3-yl]-1,5-dihydro-pyrazolo[3,4-d]pyrimidin-4-one], the IC50 fell in the range of 0.001 to 0.1 µM.

In turn, `COc1ccc(N2CC(c3nc4c(cnn4C4CCCCC4)c(=O)[nH]3)C2)cc1` [Example 165, 1-cyclohexyl-6-(1-(4-methoxyphenyl)azetidin-3-yl)-1H-pyrazolo[3,4-d]pyrimidin-4(5H)-one] displayed an IC50 of 0.101 to 0.5 µM.

As for `COc1cccc(N2CC(c3nc4c(cnn4C4CCCCC4)c(=O)[nH]3)C2)c1` [Example 166, 1-cyclohexyl-6-(1-(3-methoxyphenyl)azetidin-3-yl)-1H-pyrazolo[3,4-d]pyrimidin-4(5H)-one], the IC50 lay within 0.101 to 0.5 µM.

On to `CC(=O)Nc1ccc(N2CC(c3nc4c(cnn4C4CCCCC4)c(=O)[nH]3)C2)cc1` [Example 167, N-(4-(3-(1-cyclohexyl-4-oxo-4,5-dihydro-1H-pyrazolo[3,4-d]pyrimidin-6-yl)azetidin-1-yl)phenyl)acetamide], for which the IC50 lay in the range of 0.101 to 0.5 µM.

Consider `O=c1[nH]c(C2CN(c3ccccc3)C2)nc2c1cnn2C1CCCCC1` [Example 168, 1-cyclohexyl-6-(1-phenylazetidin-3-yl)-1H-pyrazolo[3,4-d]pyrimidin-4(5H)-one], for which the IC50 was in the range of 0.101 to 0.5 µM.

Compound `COc1ccccc1N1CC(c2nc3c(cnn3C3CCCCC3)c(=O)[nH]2)C1` [Example 169, 1-cyclohexyl-6-(1-(2-methoxyphenyl)azetidin-3-yl)-1H-pyrazolo[3,4-d]pyrimidin-4(5H)-one] returned an IC50 of 0.101 to 0.5 µM.

On to `Cc1nn(C2CCCCC2)c2nc(C3CN(C(=O)N(C)Cc4ccc(F)cc4)C3)[nH]c(=O)c12` [Example 170, 3-(1-Cyclohexyl-3-methyl-4-oxo-4,5-dihydro-1H-pyrazolo[3,4-d]pyrimidin-6-yl)-N-(4-fluorobenzyl)-N-methylazetidine-1-carboxamide], for which the IC50 lay in the range of 0.101 to 0.5 µM.

The compound `Cn1c(CN2CC(c3nc4c(cnn4C(C)(C)C)c(=O)[nH]3)C2)nc2ccccc21` [Example 171, 1-tert-Butyl-6-(1-((1-methyl-1H-benzo[d]imidazol-2-yl)methyl)azetidin-3-yl)-1H-pyrazolo[3,4-d]pyrimidin-4(5H)-one] had an IC50 of 0.501 to 1 µM.

`O=c1[nH]c(C2CN(Cc3nc4ccccc4s3)C2)nc2c1cnn2C1CCCCC1` [Example 172, 6-(1-(Benzo[d]thiazol-2-ylmethyl)azetidin-3-yl)-1-cyclohexyl-1H-pyrazolo[3,4-d]pyrimidin-4(5H)-one] gave an IC50 of 0.501 to 1 µM.

The compound `CC(C)(C)n1ncc2c(=O)[nH]c(C3CN(CC(=O)Nc4ccccc4)C3)nc21` [Example 173, 2-(3-(1-tert-Butyl-4-oxo-4,5-dihydro-1H-pyrazolo[3,4-d]pyrimidin-6-yl)azetidin-1-yl)-N-phenylacetamide] registered a concentration for half-maximal inhibition (IC50) of 0.101 to 0.5 µM.
